Data taken from article PMC4584933, “Establishing the pig as a large animal model for vaccine development against human cancer” (Frontiers in Genetics, 2015).

Tests used:
[1] = tested on: PBMCs; assay: In vitro peptide stimulation of porcine PBMCs, IFN-γ release assay (ELISA); format: cell-based, pig; parameters: key to T cell response: “x” indicates that a response was found to this given peptide at least once; settings: PBMCs of immunized pigs, 2 × 10^5/well, 5 μg/ml peptide, 67.5–70.0 h, IFN-γ ELISA; response = 2-fold increase vs day -2 and at least 25 pg/ml IFN-γ, found at least once; SLA restriction not included
[2] = tested on: SLA-1*07:02; assay: Peptide-MHC class I complex stability, scintillation proximity assay (SPA); parameters: species or system pig; settings: biotinylated recombinant SLA heavy chain, 125I-β2m, excess unlabeled β2m, read every 40 min, number only if t1/2 ≥ 0.5 h, '-' = not stably binding
Outline: (§1)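 Biotinylated recombinant heavy chains captured on streptavidin scintillation plates with 125I-β2m and peptide; signal read every 40 min under dissociating conditions with excess unlabeled β2m. Signal duration gives complex half-life; ≥ 0.5 h counted as stable binder.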

[3] = tested on: SLA-1*04:01; assay: as above; parameters: species or system pig; settings: biotinylated recombinant SLA heavy chain, 125I-β2m, excess unlabeled β2m, read every 40 min, number only if t1/2 ≥ 0.5 h, '-' = not stably binding
Outline: as §1

[4] = tested on: SLA-2*04:01; assay: as above; parameters: species or system pig; settings: biotinylated recombinant SLA heavy chain, 125I-β2m, excess unlabeled β2m, read every 40 min, number only if t1/2 ≥ 0.5 h, '-' = not stably binding
Outline: as §1

[5] = tested on: SLA-2*05:02; assay: as above; parameters: species or system pig; settings: biotinylated recombinant SLA heavy chain, 125I-β2m, excess unlabeled β2m, read every 40 min, number only if t1/2 ≥ 0.5 h, '-' = not stably binding
Outline: as §1

[6] = Dissolving of 20mer peptides for immunization; format: physicochemical; settings: to 5 mM in milliQ water, N-methyl-2-pyrrolidone or 3% ammonia water
Protocol: Fifty-nine 20mer peptides with 10mer overlap covering the entire IDO and RhoC amino acid (aa) sequence were purchased from Genscript (New Jersey, U.S) or Pepscan Presto BV (Lelystad, the Netherlands). […] Peptides were dissolved to a concentration of 5 mM in milliQ water, N-methyl-2-pyrrolidone or 3% ammonia water in accordance with the supplier's recommendations, for further details see Supplementary Table 1.

[7] = tested on: SLA-3*04:01; assay: Peptide-MHC class I complex stability, scintillation proximity assay (SPA); parameters: species or system pig; settings: biotinylated recombinant SLA heavy chain, 125I-β2m, excess unlabeled β2m, read every 40 min, number only if t1/2 ≥ 0.5 h, '-' = not stably binding
Outline: as §1

Substance	T cell response [1]	Binder (t1/2 ≥ 0.5 h): half-life of peptide-SLA-1*07:02 complex [2]	Binder (t1/2 ≥ 0.5 h): half-life of peptide-SLA-1*04:01 complex [3]	Binder (t1/2 ≥ 0.5 h): half-life of peptide-SLA-2*04:01 complex [4]	Binder (t1/2 ≥ 0.5 h): half-life of peptide-SLA-2*05:02 complex [5]	dissolving of peptide [6]	Binder (t1/2 ≥ 0.5 h): half-life of peptide-SLA-3*04:01 complex [7]
ALWDTAGQEDY [RhoC1, porcine RhoC-derived 9-11mer peptide]	x	0.9 h	3.9 h				
CVQAMVSLRNY [IDO9, porcine IDO-derived 9-11mer peptide]		3.1 h	- (t1/2 (hours) is listed for each of the stably binding peptides (t1/2 ≥ 0.5 h))				
EDYDRLRPLSY [RhoC14, porcine RhoC-derived 9-11mer peptide]			- (t1/2 (hours) is listed for each of the stably binding peptides (t1/2 ≥ 0.5 h))	- (t1/2 (hours) is listed for each of the stably binding peptides (t1/2 ≥ 0.5 h))			
EIAAASAIKVI [IDO16, porcine IDO-derived 9-11mer peptide]	x		0.8 h		12.5 h		
GSAAQSSIF [IDO33, porcine IDO-derived 9-11mer peptide]			- (t1/2 (hours) is listed for each of the stably binding peptides (t1/2 ≥ 0.5 h))	- (t1/2 (hours) is listed for each of the stably binding peptides (t1/2 ≥ 0.5 h))			
IDO330−350: 20mer peptide of the overlapping IDO/RhoC library, omitted due to dissolving problems (EAYDACVKALVSLRSYHLQIV; UniProt P14902 330-350, looked up, fragment)						dissolving problems	
KGDALLQETY [IDO48, porcine IDO-derived 9-11mer peptide]	x		0.7 h	- (t1/2 (hours) is listed for each of the stably binding peptides (t1/2 ≥ 0.5 h))			
KVLPRNIAIPY [IDO63, porcine IDO-derived 9-11mer peptide]	x	0.7 h	- (t1/2 (hours) is listed for each of the stably binding peptides (t1/2 ≥ 0.5 h))				- (t1/2 (hours) is listed for each of the stably binding peptides (t1/2 ≥ 0.5 h))
LLDITSSLH [IDO67, porcine IDO-derived 9-11mer peptide]	x		0.7 h				
MANRISAFGY [RhoC39, porcine RhoC-derived 9-11mer peptide]	x	1.5 h	0.7 h	1.4 h			
MTYKNMDILF [IDO81, porcine IDO-derived 9-11mer peptide]		- (t1/2 (hours) is listed for each of the stably binding peptides (t1/2 ≥ 0.5 h))	- (t1/2 (hours) is listed for each of the stably binding peptides (t1/2 ≥ 0.5 h))	4.2 h	- (t1/2 (hours) is listed for each of the stably binding peptides (t1/2 ≥ 0.5 h))		- (t1/2 (hours) is listed for each of the stably binding peptides (t1/2 ≥ 0.5 h))
NMDILFSFP [IDO85, porcine IDO-derived 9-11mer peptide]	x		0.8 h				
RDMANRISAF [RhoC42, porcine RhoC-derived 9-11mer peptide]			- (t1/2 (hours) is listed for each of the stably binding peptides (t1/2 ≥ 0.5 h))	- (t1/2 (hours) is listed for each of the stably binding peptides (t1/2 ≥ 0.5 h))			- (t1/2 (hours) is listed for each of the stably binding peptides (t1/2 ≥ 0.5 h))
RLAHLVLGY [IDO104, porcine IDO-derived 9-11mer peptide]		0.5 h	- (t1/2 (hours) is listed for each of the stably binding peptides (t1/2 ≥ 0.5 h))	- (t1/2 (hours) is listed for each of the stably binding peptides (t1/2 ≥ 0.5 h))			
RTYMPPAHRNF [IDO113, porcine IDO-derived 9-11mer peptide]			1.0 h	- (t1/2 (hours) is listed for each of the stably binding peptides (t1/2 ≥ 0.5 h))	- (t1/2 (hours) is listed for each of the stably binding peptides (t1/2 ≥ 0.5 h))		- (t1/2 (hours) is listed for each of the stably binding peptides (t1/2 ≥ 0.5 h))
SAAQSSIFQCF [IDO122, porcine IDO-derived 9-11mer peptide]	x		30.2 h	- (t1/2 (hours) is listed for each of the stably binding peptides (t1/2 ≥ 0.5 h))			
SKDQFPEVY [RhoC48, porcine RhoC-derived 9-11mer peptide]			- (t1/2 (hours) is listed for each of the stably binding peptides (t1/2 ≥ 0.5 h))	- (t1/2 (hours) is listed for each of the stably binding peptides (t1/2 ≥ 0.5 h))			
SLENIPEKW [RhoC49, porcine RhoC-derived 9-11mer peptide]			- (t1/2 (hours) is listed for each of the stably binding peptides (t1/2 ≥ 0.5 h))	- (t1/2 (hours) is listed for each of the stably binding peptides (t1/2 ≥ 0.5 h))			
SLESGPSVREF [IDO116, porcine IDO-derived 9-11mer peptide]	x		0.8 h				
SLHKALEVF [IDO117, porcine IDO-derived 9-11mer peptide]		- (t1/2 (hours) is listed for each of the stably binding peptides (t1/2 ≥ 0.5 h))	- (t1/2 (hours) is listed for each of the stably binding peptides (t1/2 ≥ 0.5 h))				
TSSLHKALEVF [IDO123, porcine IDO-derived 9-11mer peptide]			- (t1/2 (hours) is listed for each of the stably binding peptides (t1/2 ≥ 0.5 h))	- (t1/2 (hours) is listed for each of the stably binding peptides (t1/2 ≥ 0.5 h))			
VLGYITMAY [IDO125, porcine IDO-derived 9-11mer peptide]		1.0 h	- (t1/2 (hours) is listed for each of the stably binding peptides (t1/2 ≥ 0.5 h))	0.8 h			
VLPRNIAIPY [IDO126, porcine IDO-derived 9-11mer peptide]	x	0.7 h	- (t1/2 (hours) is listed for each of the stably binding peptides (t1/2 ≥ 0.5 h))				
VQAMVSLRNY [IDO129, porcine IDO-derived 9-11mer peptide]	x		1.2 h	- (t1/2 (hours) is listed for each of the stably binding peptides (t1/2 ≥ 0.5 h))			
YADCVLANW [IDO133, porcine IDO-derived 9-11mer peptide]	x		5.4 h	1.7 h			
YPDTDVILMCF [RhoC59, porcine RhoC-derived 9-11mer peptide]		0.8 h	1.0 h				
